Assays:
[1] = molecular target: T1, NHE3 (Homo sapiens, UniProt P48764); test: Cell-based assay of NHE-3 activity (persistent inhibition), human; details: human Persistence, 60 min incubation then washout
T1 construct: expressed in transfected cells
T1 sequence (P48764 26-834): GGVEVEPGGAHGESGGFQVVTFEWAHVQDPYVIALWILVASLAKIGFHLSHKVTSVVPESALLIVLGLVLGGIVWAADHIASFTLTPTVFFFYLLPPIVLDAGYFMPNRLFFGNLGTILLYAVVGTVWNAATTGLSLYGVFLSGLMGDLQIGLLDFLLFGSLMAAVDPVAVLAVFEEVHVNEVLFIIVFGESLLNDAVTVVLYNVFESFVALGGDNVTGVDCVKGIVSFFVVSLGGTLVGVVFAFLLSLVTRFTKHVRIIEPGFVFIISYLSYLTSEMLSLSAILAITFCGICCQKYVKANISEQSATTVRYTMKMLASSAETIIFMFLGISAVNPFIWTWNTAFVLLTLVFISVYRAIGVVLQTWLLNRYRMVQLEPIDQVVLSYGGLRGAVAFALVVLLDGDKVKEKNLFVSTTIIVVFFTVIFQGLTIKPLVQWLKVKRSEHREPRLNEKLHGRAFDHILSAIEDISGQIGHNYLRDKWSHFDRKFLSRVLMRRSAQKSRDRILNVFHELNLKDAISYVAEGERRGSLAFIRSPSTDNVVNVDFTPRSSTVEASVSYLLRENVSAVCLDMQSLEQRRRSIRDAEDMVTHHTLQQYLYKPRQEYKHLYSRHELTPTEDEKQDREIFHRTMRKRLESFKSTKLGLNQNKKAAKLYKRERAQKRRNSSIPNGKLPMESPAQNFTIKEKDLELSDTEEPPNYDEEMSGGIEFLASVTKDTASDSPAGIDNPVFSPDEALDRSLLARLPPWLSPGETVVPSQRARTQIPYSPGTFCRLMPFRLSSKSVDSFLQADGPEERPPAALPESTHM
T1 sequence (Q99653 2-195 partner limits assumed): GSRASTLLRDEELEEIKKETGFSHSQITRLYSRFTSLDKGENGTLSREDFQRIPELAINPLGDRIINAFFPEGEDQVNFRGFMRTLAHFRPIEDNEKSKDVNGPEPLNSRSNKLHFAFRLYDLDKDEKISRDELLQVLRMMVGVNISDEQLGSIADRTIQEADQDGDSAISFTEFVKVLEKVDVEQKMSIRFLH
Method: The ability of compounds to inhibit human and rat NHE-3-mediated Na^+ dependent H^+ antiport after application and washout was measured using a modification of the pH sensitive dye method described above. PS120 fibroblasts stably expressing human NHE3 and NHERF2 were obtained from Mark Donowitz (Baltimore, Md.). Opossum kidney (OK) cells were obtained from the ATCC and propagated per their instructions. The rat NHE-3 gene was introduced into OK cells via electroporation, and cells were seeded into 96 well plates and grown overnight. Medium was aspirated from the wells, cells were washed once with NaCl-HEPES buffer (100 mM NaCl, 50 mM HEPES, 10 mM glucose, 5 mM KCl, 2 mM CaCl2, 1 mM MgCl2, pH 7.4), then overlayed with NaCl-HEPES buffer containing 0-30 μM test compound. After a 60 min incubation at room temperature, the test drug containing buffer was aspirated from the cells. Following aspiration, cells were washed once with NaCl-HEPES buffer without drug, then incubated for 30 min at 37° C. with NH4Cl-HEPES buffer (20 mM NH4Cl, 80 mM NaCl, 50 mM HEPES, 5 mM KCl, 2 mM CaCl2, 1 mM MgCl2, pH 7.4) containing 5 μM BCECF-AM. Cells were washed once with Ammonium free, Na^+-free HEPES (100 mM choline, 50 mM HEPES, 10 mM glucose, 5 mM KCl, 2 mM CaCl2, 1 mM MgCl2, pH 7.4) and incubated in the same buffer for 10 minutes at room temperature to lower intracellular pH. NHE-3-mediated recovery of neutral intracellular pH was initiated (10 min after compound washout) by addition of Na-HEPES buffer. […] Changes in intracellular pH were monitored using a FLIPR Tetra® (Molecular Devices, Sunnyvale, Calif.) by excitation at λex 439 to 505 nm, and measuring BCECF fluorescence at λem 538 nm. The initial rate of the fluorescence ratio change was used as a measure of NHE-mediated Na^+/H^+ activity, and reported as the change in fluorescence ratio per minute.

[2] = molecular target: T1, NHE3; test: Cell-based assay of NHE-3 activity (pre-incubation inhibition), human; details: human Preincubation; for pIC50: 0-30 μM test compound
Method: Rat and human NHE-3-mediated Na^+-dependent H^+ antiport was measured using a modification of the pH sensitive dye method originally reported by Paradiso (Proc. Natl. Acad. Sci. USA. (1984) 81(23): 7436-7440). PS120 fibroblasts stably expressing human NHE3 and NHERF2 were obtained from Mark Donowitz (Baltimore, Md.). Opossum kidney (OK) cells were obtained from the ATCC and propagated per their instructions. The rat NHE-3 gene (GenBank M85300) was introduced into OK cells via electroporation, and cells were seeded into 96 well plates and grown overnight. Medium was aspirated from the wells then incubated for 30 min at 37° C. with NH4Cl-HEPES buffer (20 mM NH4Cl, 80 mM NaCl, 50 mM HEPES, 5 mM KCl, 2 mM CaCl2, 1 mM MgCl2, pH 7.4) containing 5 μM BCECF-AM. Cells were washed once with Ammonium free, Na^+-free HEPES (100 mM choline, 50 mM HEPES, 10 mM glucose, 5 mM KCl, 2 mM CaCl2, 1 mM MgCl2, pH 7.4) and incubated in the same buffer for 10 minutes at room temperature to lower intracellular pH with 0-30 μM test compound. […] Changes in intracellular pH were monitored using a FLIPR Tetra® (Molecular Devices, Sunnyvale, Calif.) by excitation at λex 439 to 505 nm, and measuring BCECF fluorescence at λem 538 nm. The initial rate of the fluorescence ratio change was used as a measure of NHE-mediated Na^+/H^+ activity, and reported as the change in fluorescence ratio per minute.

% inhibition [1]	pIC50 [1]	% inhibition [2]	pIC50 [2]	Compound
B (40-70%)	C (NHE3 pIC50 > 7)	C (>70%)	C (NHE3 pIC50 > 7)	Cc1cc(S(=O)(=O)NCCOCCOCCNC(=O)NCCCCNC(=O)NCCOCCOCCNS(=O)(=O)c2ccc(O[C@H]3c4cc(Cl)cc(Cl)c4C[C@@H]3N3CCC[C@@H](N)C3)c(C)c2)ccc1O[C@H]1c2cc(Cl)cc(Cl)c2C[C@@H]1N1CCC[C@@H](N)C1 [Example 1, 1-[2-(2-[2-[(4-[[(1S,2S)-2-[(3R)-3-Aminopiperidin-1-yl]-4,6-dichloro-2,3-dihydro-1H-inden-1-yl]oxy]-3-methylbenzene)sulfonamido]ethoxy]ethoxy)ethyl]-3-[4-([[2-(2-[2-([4-[[(1S,2S)-2-[(3R)-3-aminopiperidin-1-yl]-4,6-dichloro-2,3-dihydro-1H-inden-1-yl]oxy]-3-methylbenzene)sulfonamido]ethoxy]ethoxy)ethyl]carbamoyl]amino)butyl]urea]
C (>70%)		C (>70%)		N[C@@H]1CCCN([C@H]2Cc3c(Cl)cc(Cl)cc3[C@@H]2Oc2ccc(S(=O)(=O)NCCOCCOCCNC(=O)NCCCCNC(=O)NCCOCCOCCNS(=O)(=O)c3ccc(O[C@H]4c5cc(Cl)cc(Cl)c5C[C@@H]4N4CCC[C@@H](N)C4)c(F)c3)cc2F)C1 [Example 2]
C (>70%)		C (>70%)		Cc1cc(Cl)cc2c1C[C@H](N1CCC[C@@H](N)C1)[C@H]2Oc1ccc(S(=O)(=O)NCCOCCOCCNC(=O)NCCCCNC(=O)NCCOCCOCCNS(=O)(=O)c2ccc(O[C@H]3c4cc(Cl)cc(C)c4C[C@@H]3N3CCC[C@@H](N)C3)cc2)cc1 [Example 3, 3-[2-(2-[2-[(4-[[(1S,2S)-2-[(3R)-3-Aminopiperidin-1-yl]-6-chloro-4-methyl-2,3-dihydro-1H-inden-1-yl]oxy]benzene)sulfonamido]ethoxy]ethoxy)ethyl]-1-[4-([[2-(2-[2-[(4-[[(1S,2S)-2-[(3R)-3-aminopiperidin-1-yl]-6-chloro-4-methyl-2,3-dihydro-1H-inden-1-yl]oxy]benzene)sulfonamido]ethoxy]ethoxy)ethyl]carbamoyl]amino)butyl]urea]
B (40-70%)		B (40-70%)		N#Cc1cc(Cl)cc2c1C[C@H](N1CCC[C@@H](N)C1)[C@H]2Oc1ccc(S(=O)(=O)NCCOCCOCCNC(=O)NCCCCNC(=O)NCCOCCOCCNS(=O)(=O)c2ccc(O[C@H]3c4cc(Cl)cc(C#N)c4C[C@@H]3N3CCC[C@@H](N)C3)cc2)cc1 [Example 4, 3-[2-(2-[2-[(4-[[(1S,2S)-2-[(3R)-3-Aminopiperidin-1-yl]-6-chloro-4-cyano-2,3-dihydro-1H-inden-1-yl]oxy]benzene)sulfonamido]ethoxy]ethoxy)ethyl]-1-[4-([[2-(2-[2-[(4-[[(1S,2)-2-[(3R)-3-aminopiperidin-1-yl]-6-chloro-4-cyano-2,3-dihydro-1H-inden-1-yl]oxy]benzene)sulfonamido]ethoxy]ethoxy)ethyl]carbamoyl]amino)butyl]urea; bis(trifluoroacetic acid)]
C (>70%)		B (40-70%)		COc1cc(Cl)cc2c1C[C@H](N1CCC[C@@H](N)C1)[C@H]2Oc1ccc(S(=O)(=O)NCCOCCOCCNC(=O)NCCCCNC(=O)NCCOCCOCCNS(=O)(=O)c2ccc(O[C@H]3c4cc(Cl)cc(OC)c4C[C@@H]3N3CCC[C@@H](N)C3)cc2)cc1 [Example 5, 3-[2-(2-[2-[(4-[[(1S,2S)-2-[(3R)-3-Aminopiperidin-1 yl]-6-chloro-4-methoxy-2,3-dihydro-1H-inden-1-yl]oxy]benzene)sulfonamido]ethoxy]ethoxy)ethyl]-1-[4-[[(2-(2-[2-[(4-[[(1S,2S)-2-[(3R)-3-aminopiperidin-1-yl]-6-chloro-4-methoxy-2,3-dihydro-1H-inden-1-yl]oxy]benzene)sulfonamido]ethoxy]ethoxy)ethyl]carbamoyl]amino)butyl]urea; bis(trifluoroacetic acid)]
A (NHE3 < 40%)	A (NHE3 pIC50 < 6)	A (NHE3 < 40%)	A (NHE3 pIC50 < 6)	Cc1cc(S(=O)(=O)NCCOCCOCCNC(=O)NCCCCNC(=O)NCCOCCOCCNS(=O)(=O)c2ccc(O[C@H]3c4cc(Cl)cc(F)c4C[C@@H]3N3CCC[C@@H](N)C3)c(C)c2)ccc1O[C@H]1c2cc(Cl)cc(F)c2C[C@@H]1N1CCC[C@@H](N)C1 [Example 6]
C (>70%)		C (>70%)		Cc1cc(S(=O)(=O)NCCOCCOCCNC(=O)NCCCCNC(=O)NCCOCCOCCNS(=O)(=O)c2ccc(O[C@H]3c4cc(Cl)cc(C)c4C[C@@H]3N3CCC[C@@H](N)C3)c(C)c2)ccc1O[C@H]1c2cc(Cl)cc(C)c2C[C@@H]1N1CCC[C@@H](N)C1 [Example 7, 3-[2-(2-[2-[(4-[[(1S,2S)-2-[(3R)-3-Aminopiperidin-1-yl]-6-chloro-4-methyl-2,3-dihydro-1H-inden-1-yl]oxy]-3-methylbenzene)sulfonamido]ethoxy]ethoxy)ethyl]-1-[4-([[2-(2-[2-[(4-[[(1S,2S)-2-[(3R)-3-aminopiperidin-1-yl]-6-chloro-4-methyl-2,3-dihydro-1H-inden-1-yl]oxy]-3-methylbenzene)sulfonamido]ethoxy]ethoxy)ethyl]carbamoyl]amino)butyl]urea]
A (NHE3 < 40%)		A (NHE3 < 40%)		Cc1cc(S(=O)(=O)NCCOCCOCCNC(=O)NCCCCNC(=O)NCCOCCOCCNS(=O)(=O)c2ccc(O[C@H]3c4cc(Cl)cc(C#N)c4C[C@@H]3N3CCC[C@@H](N)C3)c(C)c2)ccc1O[C@H]1c2cc(Cl)cc(C#N)c2C[C@@H]1N1CCC[C@@H](N)C1 [Example 8, 3-[2-(2-[2-[(4-[[(1S,2S)-2-[(3R)-3-Aminopiperidin-1-yl]-6-chloro-4-cyano-2,3-dihydro-1H-inden-1-yl]oxy]-3-methylbenzene)sulfonamido]ethoxy]ethoxy)ethyl]-1-[4-([[2-(2-[2-[(4-[[(1S,2S)-2-[(3R)-3-aminopiperidin-1-yl]-6-chloro-4-cyano-2,3-dihydro-1H-inden-1-yl]oxy]-3-methylbenzene)sulfonamido]ethoxy]ethoxy)ethyl]carbamoyl]amino)butyl]urea; bis(trifluoroacetic acid)]

From patent US11242337B2, “Compounds useful for treating gastrointestinal tract disorders” (Ardelyx, Inc., priority 2017, dated 2022)
